{"source": "the supplement of paper PMC11061612", "test_in_all_cases": "combination Emax (second highest fraction inhibited in the dose matrix, 72 h); higher = more inhibition; extreme values may be limits of the assay", "key": {"[1]": {"system": "HCC-78 (Lung Adenocarcinoma)", "method_in_brief": "(§1)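 Cell lines in DMEM/F12 or RPMI with 10% FBS were plated in 1536-well plates, held 24 hours at 37°C, 5% CO2, then given two-drug dose matrices for 72 hours (DMSO typically 0.2%). Viability was read by CellTiter-Glo 2.0 luminescence and scaled as inhibition from 0 (vehicle wells) to 1 (blank wells). Combination Emax is the second-highest inhibition in the matrix; Bliss excess is observed combination effect minus expected EA + EB − EA·EB, EA and EB being single-agent effects.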"}, "[2]": {"system": "Calu-3 (Lung Adenocarcinoma)", "method_in_brief": "as §1"}, "[3]": {"system": "TE-15 (Esophageal Squamous Cell Carcinoma)", "method_in_brief": "as §1"}, "[4]": {"system": "UM-UC-3 (Bladder Carcinoma)", "method_in_brief": "as §1"}, "[5]": {"system": "NCI-H82 (Small Cell Lung Carcinoma)", "method_in_brief": "as §1"}, "[6]": {"system": "DoTc2-4510 (Cervical Carcinoma)", "method_in_brief": "as §1"}, "[7]": {"system": "TE-9 (Esophageal Squamous Cell Carcinoma)", "method_in_brief": "as §1"}, "[8]": {"system": "LB831-BLC (Bladder Carcinoma)", "method_in_brief": "as §1"}}, "data": [{"smiles": "N#Cc1cnc(Nc2cc(NC[C@H]3CNCCO3)c(C(F)(F)F)cn2)cn1", "note": "[SRA737] + CCc1c2c(nc3ccc(O)cc13)-c1cc3c(c(=O)n1C2)COC(=O)[C@]3(O)CC [SN-38] (first compound max 10 µM, 7x7, partner max 0.3 µM)", "values": [{"measurement": "combination Emax", "setting": "[1]", "value": 0.959}, {"measurement": "combination Emax", "setting": "[2]", "value": 0.674}, {"measurement": "combination Emax", "setting": "[3]", "value": 0.931}, {"measurement": "combination Emax", "setting": "[4]", "value": 0.967}, {"measurement": "combination Emax", "setting": "[5]", "value": 0.967}, {"measurement": "combination Emax", "setting": "[6]", "value": 0.936}, {"measurement": "combination Emax", "setting": "[7]", "value": 0.589}, {"measurement": "combination Emax", "setting": "[8]", "value": 0.904}]}, {"smiles": "N#Cc1cnc(Nc2cc(NC[C@H]3CNCCO3)c(C(F)(F)F)cn2)cn1", "note": "[SRA737] + Nc1ccn([C@@H]2O[C@H](CO)[C@@H](O)C2(F)F)c(=O)n1 [Gemcitabine] (first compound max 10 µM, 7x7, partner max 0.3 µM)", "values": [{"measurement": "combination Emax", "setting": "[1]", "value": 0.906}, {"measurement": "combination Emax", "setting": "[2]", "value": 0.67}, {"measurement": "combination Emax", "setting": "[3]", "value": 0.923}, {"measurement": "combination Emax", "setting": "[4]", "value": 0.966}, {"measurement": "combination Emax", "setting": "[5]", "value": 0.978}, {"measurement": "combination Emax", "setting": "[6]", "value": 0.803}, {"measurement": "combination Emax", "setting": "[7]", "value": 0.52}, {"measurement": "combination Emax", "setting": "[8]", "value": 0.911}]}, {"smiles": "N#Cc1cnc(Nc2cc(NC[C@H]3CNCCO3)c(C(F)(F)F)cn2)cn1", "note": "[SRA737] + O=c1[nH]cc(F)c(=O)[nH]1 [5-Fluorouracil] (first compound max 10 µM, 7x7, partner max 20 µM)", "values": [{"measurement": "combination Emax", "setting": "[1]", "value": 0.819}, {"measurement": "combination Emax", "setting": "[2]", "value": 0.213}, {"measurement": "combination Emax", "setting": "[3]", "value": 0.705}, {"measurement": "combination Emax", "setting": "[4]", "value": 0.208}, {"measurement": "combination Emax", "setting": "[5]", "value": 0.816}, {"measurement": "combination Emax", "setting": "[6]", "value": 0.231}, {"measurement": "combination Emax", "setting": "[7]", "value": 0.469}, {"measurement": "combination Emax", "setting": "[8]", "value": 0.34}]}, {"smiles": "Cc1nc(-c2cn3c(n2)-c2ccc(-c4cnn(C(C)(C)C(N)=O)c4)cc2OCC3)n(C(C)C)n1", "note": "[Taselisib] + O=C(Nc1ccc2[nH]nc(-c3ccncc3)c2c1)[C@@H]1CCN(CC(=O)N2CCN(c3ccc(-c4ncccn4)cc3)CC2)C1 [SCH772984] (first compound max 10 µM, 7x7, partner max 5 µM)", "values": [{"measurement": "combination Emax", "setting": "[1]", "value": 0.664}, {"measurement": "combination Emax", "setting": "[2]", "value": 0.855}, {"measurement": "combination Emax", "setting": "[3]", "value": 0.832}, {"measurement": "combination Emax", "setting": "[4]", "value": 0.716}, {"measurement": "combination Emax", "setting": "[5]", "value": 0.429}, {"measurement": "combination Emax", "setting": "[6]", "value": 0.691}, {"measurement": "combination Emax", "setting": "[7]", "value": 0.691}, {"measurement": "combination Emax", "setting": "[8]", "value": 0.641}]}, {"smiles": "CC1(C)CCC(CN2CCN(c3ccc(C(=O)NS(=O)(=O)c4ccc(NCC5CCOCC5)c([N+](=O)[O-])c4)c(Oc4cnc5[nH]ccc5c4)c3)CC2)=C(c2ccc(Cl)cc2)C1", "note": "[Venetoclax] + CS(=O)(=O)CCNCc1ccc(-c2ccc3ncnc(Nc4ccc(OCc5cccc(F)c5)c(Cl)c4)c3c2)o1 [Lapatinib] (first compound max 1 µM, 7x7, partner max 10 µM)", "values": [{"measurement": "combination Emax", "setting": "[1]", "value": 0.143}, {"measurement": "combination Emax", "setting": "[2]", "value": 0.74}, {"measurement": "combination Emax", "setting": "[3]", "value": 0.742}, {"measurement": "combination Emax", "setting": "[4]", "value": 0.104}, {"measurement": "combination Emax", "setting": "[5]", "value": 0.279}, {"measurement": "combination Emax", "setting": "[6]", "value": 0.522}, {"measurement": "combination Emax", "setting": "[7]", "value": 0.189}, {"measurement": "combination Emax", "setting": "[8]", "value": 0.202}]}]}
